Laboratory results as given in ChEMBL document CHEMBL1143173, “2D Autocorrelation, CoMFA, and CoMSIA modeling of protein tyrosine kinases' inhibition by substituted pyrido[2,3-d]pyrimidine derivatives” (Bioorg Med Chem, 2008).

Legend:
[1] = Inhibition of PDGFR
[2] = Inhibition of FGFR
[3] = target: Proto-oncogene tyrosine-protein kinase Src (Homo sapiens) (UniProt P12931); experiment: Inhibition of cSrc
Proto-oncogene tyrosine-protein kinase Src (Homo sapiens), sequence (P12931 2-536 limits assumed): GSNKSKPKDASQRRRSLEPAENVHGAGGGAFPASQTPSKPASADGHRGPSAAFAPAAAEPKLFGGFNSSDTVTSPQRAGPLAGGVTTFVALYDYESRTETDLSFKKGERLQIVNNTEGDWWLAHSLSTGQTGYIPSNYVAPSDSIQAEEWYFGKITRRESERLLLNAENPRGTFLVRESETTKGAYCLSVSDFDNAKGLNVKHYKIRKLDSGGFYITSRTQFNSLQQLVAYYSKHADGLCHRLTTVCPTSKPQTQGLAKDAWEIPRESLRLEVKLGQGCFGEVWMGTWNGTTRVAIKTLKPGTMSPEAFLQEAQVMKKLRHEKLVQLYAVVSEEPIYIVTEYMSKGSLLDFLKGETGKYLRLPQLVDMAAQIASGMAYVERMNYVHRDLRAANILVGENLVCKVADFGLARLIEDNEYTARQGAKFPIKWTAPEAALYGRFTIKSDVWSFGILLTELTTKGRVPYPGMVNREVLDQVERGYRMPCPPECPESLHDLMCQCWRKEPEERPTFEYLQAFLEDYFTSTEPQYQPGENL

Row | SMILES | log(10^6/IC50) [1] | log(10^6/IC50) [2] | log(10^6/IC50) [3]
1 | CN1CCN(c2ccc(Nc3ncc4cc(-c5c(Cl)cccc5Cl)c(=O)n(C)c4n3)cc2)CC1 | 3.94 | 4.29 | 5
2 | COc1ccc(NC(=O)Nc2nc3nc(NCCCN4CCN(C)CC4)ncc3cc2-c2c(Cl)cccc2Cl)cc1 |  |  | 4.55
3 | CCOc1cc(OCC)cc(-c2cc3cnc(N)nc3nc2NC(=O)NC(C)(C)C)c1 | 1.3 | 2.78 | 1.3
4 | Cn1c(=O)c(-c2c(Cl)cccc2Cl)cc2cncnc21 | 1.3 | 1.3 | 2
5 | Cn1c(=O)c(-c2c(Cl)cccc2Cl)cc2cnc(Nc3ccc(CC(=O)O)cc3)nc21 | 4.15 | 4.21 | 5
6 | CN(C)c1ncc2cc(-c3c(Cl)cccc3Cl)c(=O)n(C)c2n1 | 1.3 | 1.3 | 1.3
7 | COc1cc(OC)cc(-c2cc3cnc(N)nc3n(C)c2=O)c1 | 1.37 | 3.9 | 1.3
8 | CC(C)(C)NC(=O)Nc1nc2nc(N)ncc2cc1-c1cc(C(F)(F)F)cc(C(F)(F)F)c1 | 1.3 | 1.3 | 1.3
9 | Cc1ncc2cc(-c3c(Cl)cccc3Cl)c(=O)n(C)c2n1 | 1.3 | 1.3 | 1.3
10 | CN(C)c1cc(-c2cc3cnc(N)nc3nc2NC(=O)NC(C)(C)C)cc(N(C)C)c1 | 1.3 | 1.8 | 1.3
